Assay results from patent US20230174571A1, “METHOD OF TREATING SHIP1-MEDIATED DISEASES USING PELOROL DERIVATIVES” (Zebrapeutics Inc., priority 2020, published 2023).

Tests used:
SHIP1 and STAT3 [1] = biological target: T1, SHIP1 and STAT3 (Mus musculus, UniProt Q9ES52); experiment: Immunofluorescence of SHIP1 and STAT3 subcellular localization in peritoneal macrophages; type: cell-based; details: for membrane association of SHIP1 and STAT3 / nuclear localization of SHIP1 and STAT3: wild-type perimacs, 100 ng/ml IL10 or 20 μM I-2; for membrane association of SHIP1 and STAT3: 2 min; for nuclear localization of SHIP1 and STAT3: 20 min
T1 construct: expressed in transfected cells; host or cells: J17 (SHIP1-/- mouse BMDM-derived line), lentiviral transduction
T1 sequence (Q9ES52 1-1191): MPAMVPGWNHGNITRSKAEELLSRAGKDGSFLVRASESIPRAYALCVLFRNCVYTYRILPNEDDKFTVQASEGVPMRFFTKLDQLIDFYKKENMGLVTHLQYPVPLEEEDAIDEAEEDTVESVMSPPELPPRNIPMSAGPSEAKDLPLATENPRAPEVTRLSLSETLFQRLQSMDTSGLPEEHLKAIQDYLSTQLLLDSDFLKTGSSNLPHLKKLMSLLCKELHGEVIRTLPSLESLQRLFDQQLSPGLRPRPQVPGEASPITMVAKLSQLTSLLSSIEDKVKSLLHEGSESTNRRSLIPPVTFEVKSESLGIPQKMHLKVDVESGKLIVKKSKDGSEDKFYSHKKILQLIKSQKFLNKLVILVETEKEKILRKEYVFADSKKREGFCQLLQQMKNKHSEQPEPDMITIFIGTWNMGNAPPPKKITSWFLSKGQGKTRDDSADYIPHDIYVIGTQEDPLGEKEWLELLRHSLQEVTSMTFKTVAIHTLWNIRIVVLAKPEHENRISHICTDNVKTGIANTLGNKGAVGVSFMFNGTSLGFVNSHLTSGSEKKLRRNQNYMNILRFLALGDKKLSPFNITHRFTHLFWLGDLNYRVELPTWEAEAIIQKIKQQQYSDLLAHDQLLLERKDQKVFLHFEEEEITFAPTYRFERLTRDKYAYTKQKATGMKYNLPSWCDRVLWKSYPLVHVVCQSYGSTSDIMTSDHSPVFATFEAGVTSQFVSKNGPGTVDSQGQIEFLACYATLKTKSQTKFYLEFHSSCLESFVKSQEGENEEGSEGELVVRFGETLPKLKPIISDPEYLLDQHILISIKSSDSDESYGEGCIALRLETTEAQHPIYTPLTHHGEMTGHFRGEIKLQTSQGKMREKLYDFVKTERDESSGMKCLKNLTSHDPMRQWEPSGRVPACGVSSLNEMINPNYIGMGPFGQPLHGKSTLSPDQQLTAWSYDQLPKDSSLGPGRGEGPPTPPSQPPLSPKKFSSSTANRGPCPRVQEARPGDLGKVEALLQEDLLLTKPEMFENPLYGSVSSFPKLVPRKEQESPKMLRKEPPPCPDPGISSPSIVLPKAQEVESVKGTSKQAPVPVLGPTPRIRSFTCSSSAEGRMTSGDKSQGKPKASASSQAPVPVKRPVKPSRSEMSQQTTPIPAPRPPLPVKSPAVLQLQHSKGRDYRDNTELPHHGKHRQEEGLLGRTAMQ
Experimental: Isolation of mouse peritoneal macrophages. Primary peritoneal macrophages (perimacs) were isolated from mice by peritoneal lavage with 3 ml of sterile Phosphate Buffered Saline (PBS) (Thermo Fisher Scientific, Nepean, ON). Perimacs were collected and transferred to Mac media.
Immunofluorescence. Perimacs were seeded at 3×10^5 cells per well in 18-well Ibidi p-Slides (Ibidi GmbH, Martinsried, Germany) and allowed to adhere for 3 hours before washing with PBS to remove non-adherent cells. CD8+ T cells were seeded at 2×10^6 cells in 12-well tissue culture plates. Cells were stimulated with either 100 ng/ml IL10 or 20 μM compound I-2 for 2 or 20 minutes followed by 3×PBS washes and fixing of cells in 4% paraformaldehyde for 15 minutes at room temperature. Cells were incubated with anti-mouse CD16/CD32 Fc Block (BD Pharmingen) for 1 hour followed by an overnight incubation at 4° C. with either anti-SHIP1 antibody (P1C1) (Santa Cruz Biotechnology) or anti-STAT3 antibody (9D8) (ThermoFisher Scientific). Cells were then incubated with anti-mouse IgG (H+L)-Alexa Fluor 660 secondary antibody (ThermoFisher Scientific) for 1 hour, followed by, for perimacs, anti-CD11b-FITC antibody (BD Pharmingen) for 30 minutes. CD8+ T cells were mounted onto 18-well Ibidi p-Slides prior to confocal microscopy and cells were stored in Ibidi Mounting Media supplemented with ProLong Gold antifade reagent with DAPI (Molecular Probes, Life Technologies). Cells were imaged on a Leica SP5II on DM6000 confocal microscope with a 63×/1.4-0.6 Oil PL APO objective using 405, 488 and 633 nm laser lines for excitation. Final images were scanned sequentially acquiring eight Z-stacks with a frame-average of four. Co-localization analysis was performed using ImageJ software by first combining individual z-stack confocal images then performing deconvolution and co-localization using CUDA deconvolution and JACoP plugins respectively. Pearson's coefficient values were produced as a measurement of the degree of overlap between SHIP1 or STAT3 with CD11b (for Perimacs) or DAPI.

SHIP1 and STAT3 [2] = biological target: T1, SHIP1 and STAT3; experiment: In vitro pull down assay of His6-SHIP1 with STAT3; type: cell-based; details: J17 His6-SHIP1 cells; 100 ng/ml IL10 or IL6, 20 μM compound I-2; 5 minutes
Experimental: In vitro pull down assay. J17 His6-SHIP1 and Y190F cells were seeded at 2×10^6 cells per well in a 6-well plate. After overnight incubation, fresh cell media was added for 30 minutes before stimulation with 100 ng/ml IL10, […] or 20 μM compound I-2 for 5 minutes. Cells were lysed with Protein Solubilization Buffer (PSB, 50 mM Hepes, pH 7.5, […], 10 mM Na Pyrophosphate, 2 mM NaVO4, 2 mM Na Molybdate, 2 mM EDTA) containing 1% octylglucoside, 0.01 M imidazole, and protease inhibitor cocktail (Roche Diagnostics, Laval, QC) for 30 minutes at 4° C. and centrifuged at 10000 rpm for 15 minutes. EDTA resistant Ni beads (Roche Diagnostics, Laval, QC) were added to supernatants and the mixture incubated at 4° C. for 1 hour before spinning down and washing of beads three times with 0.1% octylglucoside wash buffer in PSB. Bead samples and starting material cell lysates were separated on a 7.5% SDS-PAGE gel.
Immunoblotting. Protein lysates were separated on SDS-PAGE gels and transferred onto polyvinylidene fluoride (PVDF) membrane (Millipore, Etobicoke, ON). Membranes were blocked and probed, where appropriate, with the following primary antibodies overnight: SHIP1 (P1C1) (Santa Cruz Biotechnology), pSHIP1 (Y190) (Kinexus), STAT3 (9D8) (ThermoFisher Scientific), pSTAT3 (Y705) (Thermo Fisher Scientific), STAT1 (BD Transduction Laboratories), pSTAT1 (Y701) (Upstate Biotechnology), GAPDH and actin (Sigma-Aldrich). Membranes were developed with either Alexa Fluor® 660 anti-mouse IgG or Alexa Fluor® 680 anti-rabbit IgG antibodies (Thermo Fisher Scientific) and imaged using a LI-COR Odyssey Imager.

| Compound | mimicry of IL10 with respect to SHIP1 and STAT3 translocations (SHIP1 and STAT3 [1]; peritoneal macrophages) | association (co-precipitation) of SHIP1 and STAT3 (SHIP1 and STAT3 [2]) | membrane association of SHIP1 and STAT3 (SHIP1 and STAT3 [1]) | nuclear localization of SHIP1 and STAT3 (SHIP1 and STAT3 [1]) |
| --- | --- | --- | --- | --- |
| Cc1cc(O)cc2c1C1(C)CCC3C(C)(C)CCCC3(C)C1C2 (centres unmarked) [Compound I-1] | can mimic IL10 | could by itself induce formation of a SHIP1/STAT3 complex |  |  |
| CC12CCC3C(C)(C)C(N)CCC3(C)C1Cc1cc(O)cc(O)c12 (centres unmarked) [Compound I-2] |  | sufficient to induce association of SHIP1 and STAT3 | induced membrane association of both SHIP1 and STAT3 | both SHIP1 and STAT3 are found in the nucleus |
| IL10: anti-inflammatory cytokine interleukin-10 |  | resulted in co-precipitation of SHIP1 with STAT3 | induced membrane association of both SHIP1 and STAT3 | both SHIP1 and STAT3 are found in the nucleus |
